Test results reported in patent publication US7671085B2, “Non-steroidal farnesoid X receptor modulators and methods for the use thereof” (The Salk Institute for Biological Studies, priority 2002, dated 2010).

Experiments:
mouse FXR and human RXR = target: T1, mouse FXR and human RXR (Mus musculus, UniProt Q60641); assay: CV-1 transient transfection reporter gene assay, TK minimal promoter with ECRE or ER-8 FXRE; assay type: cell-based; details: CV-1 cells
T1 construct: expressed in transfected cells; host or cells: CV-1 cells
T1 sequence (Q60641 1-488): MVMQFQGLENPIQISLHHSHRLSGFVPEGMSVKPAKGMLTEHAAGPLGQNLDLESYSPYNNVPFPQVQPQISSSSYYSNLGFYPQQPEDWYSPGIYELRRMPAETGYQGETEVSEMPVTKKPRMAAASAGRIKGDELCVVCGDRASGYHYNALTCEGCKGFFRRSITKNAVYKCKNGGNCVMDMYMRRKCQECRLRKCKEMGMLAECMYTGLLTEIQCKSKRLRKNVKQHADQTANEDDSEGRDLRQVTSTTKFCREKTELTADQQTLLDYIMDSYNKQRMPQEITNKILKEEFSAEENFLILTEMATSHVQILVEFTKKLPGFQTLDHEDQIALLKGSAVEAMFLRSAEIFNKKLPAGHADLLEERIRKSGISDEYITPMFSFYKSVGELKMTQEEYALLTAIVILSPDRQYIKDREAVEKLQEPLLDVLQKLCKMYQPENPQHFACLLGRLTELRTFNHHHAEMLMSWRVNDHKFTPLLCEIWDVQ
T1 sequence (P19793 1-462 partner): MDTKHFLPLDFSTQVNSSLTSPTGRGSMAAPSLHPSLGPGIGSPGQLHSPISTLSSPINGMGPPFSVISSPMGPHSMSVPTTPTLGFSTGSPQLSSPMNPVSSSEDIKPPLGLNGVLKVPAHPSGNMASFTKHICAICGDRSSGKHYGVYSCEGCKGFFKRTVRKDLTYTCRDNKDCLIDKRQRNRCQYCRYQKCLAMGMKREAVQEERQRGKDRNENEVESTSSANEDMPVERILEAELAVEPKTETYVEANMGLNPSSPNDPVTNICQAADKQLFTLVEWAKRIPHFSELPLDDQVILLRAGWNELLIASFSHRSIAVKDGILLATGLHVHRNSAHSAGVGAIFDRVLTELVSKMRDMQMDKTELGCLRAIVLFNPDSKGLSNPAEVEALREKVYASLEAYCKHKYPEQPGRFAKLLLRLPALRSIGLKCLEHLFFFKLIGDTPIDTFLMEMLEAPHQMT
Method: The ability of these compounds to activate the receptor in a number of different cell-based reporter gene assays was then determined. […] CV-1 cells were transiently transfected with an expression plasmid for mouse FXR and human RXR with a thymidine kinase (TK) minimal promoter reporter vector containing either no copies or six copies of the ecdysone response element (ECRE), a well-characterized FXR response element (FXRE). In addition, two copies of the recently identified FXRE everted repeat separated by 8 nucleotides (ER-8) was also studied (see, for example, Laffitte et al. (2000). Identification of the DNA binding specificity and potential target genes for the farnesoid X-activated receptor. J Biol Chem. 275(14), 10638-47; Kast et al. (2002). Regulation of multidrug resistance-associated protein 2 (ABCC2) by the nuclear receptors pregnane X receptor, farnesoid X-activated receptor, and constitutive androstane receptor. J Biol Chem. 277(4), 2908-15).

[1] = system: FXR (IBABP, PLTP and MRP-2 promoters); assay: transient transfection cell-based assay with natural promoters of FXR targets (IBABP, PLTP, MRP-2)
Source text: For this study, the following gene promoters were used: intestinal bile acid binding protein (IBABP; see, for example, Grober et al. (1999). Identification of a bile acid-responsive element in the human ileal bile acid-binding protein gene. Involvement of the farnesoid X receptor/9-cis-retinoic acid receptor heterodimer. J Biol Chem. 274(42), 29749-54), phospholipid transfer protein (PLTP) (Urizar et al (2000). The farnesoid X-activated receptor mediates bile acid activation of phospholipid transfer protein gene expression. J Biol Chem. 275(50), 39313-7) and multidrug resistance related protein 2 (MRP-2) (Kast et al. (2002), supra), which are all well characterized targets of FXR. The natural promoters of both the IBABP and PLTP genes contain one copy of an inverted repeat with a one base spacing (IR-1) while MRP-2 contains an ER-8 element. […] The most robust activation (28-fold) was seen on the IBABP promoter. Less robust (2-3 fold) but specific activation was observed on the PLTP and MRP-2 promoters.

[2] = system: FXR target genes SHP, MRP-2, BSEP and PLTP; assay: Northern blot of FXR target genes in HEPG2-FXR cells; assay type: cell-based; details: SHP, MRP-2, BSEP, PLTP
Method: (§1) HepG2 or HT29-derived cell lines were typically cultured in medium containing superstripped FBS for 24 hr before the addition of a ligand or DMSO (vehicle) for an additional 24-48 hr. Total RNA was isolated using TRIzol reagent and was resolved (10 μg/lane) on a 1% agarose, 2.2 M formaldehyde gel, transferred to a nylon membrane (Hybond N^+; Amersham Biosciences, Inc.), and cross-linked to the membrane with UV light.
(§2) cDNA probes were radiolabeled with [α-^32P]dCTP using the highprime labeling kit (Amersham Biosciences, Inc.). Membranes were hybridized using the QuikHyb hybridization solution (Stratagene, La Jolla, Calif.) according to the manufacturer's protocol. Blots were normalized for variations of RNA loading by hybridization to a control probe, either, 18 S ribosomal cDNA, or the ribosomal protein 36B4. The RNA levels were quantitated using a PhosphorImager (ImageQuant software; Molecular Dynamics, Inc., Sunnyvale, Calif.) in addition to being exposed to X-ray film.
Total RNA was isolated and the expression of the FXR target genes SHP, MRP-2, BSEP and PLTP was measured by Northern blot analysis. […]

[3] = system: IBABP mRNA in HT29-FXRFL cells; assay: Northern blot of IBABP mRNA in HT29 stable cell lines; assay type: cell-based, Human; details: for concentration for maximal induction of IBABP mRNA: overnight treatment
Method: as §1, §2
Human colon cells HT29 (FXR null until differentiated) were infected with retroviral vectors that expressed either FXR constructs and the puromycin-resistant gene or the puromycin-resistant gene alone. Puromycin resistant cells were isolated and pooled cell populations were propagated that harbored either the vector alone (HT29-BABE), overexpressed FXR full length (HT29-FXRFL), a non-functional FXR truncated at the AF2 region (HT29-FXR-AF2), or a constitutively active FXR that has the VP16 activation domain fused N-terminal of the protein (HT29-VP16-FXR). Confirmation of the successful establishment of the different stable cell lines was established via northern blot analysis of FXR message levels in the cells.
These observations verify the usefulness of this colon cell model system for studying the induction of FXR target genes.
The ability of the novel compounds identified herein to induce IBABP gene expression in this cell system was also examined. Total RNA from HT29 stable cells treated overnight with fexaramine, fexarine and fexarene was probed for IBABP gene expression.

SXR = target: T2, SXR (Homo sapiens, UniProt O75469); assay: nuclear receptor panel: SXR activation; assay type: cell-based
T2 sequence (O75469 1-434): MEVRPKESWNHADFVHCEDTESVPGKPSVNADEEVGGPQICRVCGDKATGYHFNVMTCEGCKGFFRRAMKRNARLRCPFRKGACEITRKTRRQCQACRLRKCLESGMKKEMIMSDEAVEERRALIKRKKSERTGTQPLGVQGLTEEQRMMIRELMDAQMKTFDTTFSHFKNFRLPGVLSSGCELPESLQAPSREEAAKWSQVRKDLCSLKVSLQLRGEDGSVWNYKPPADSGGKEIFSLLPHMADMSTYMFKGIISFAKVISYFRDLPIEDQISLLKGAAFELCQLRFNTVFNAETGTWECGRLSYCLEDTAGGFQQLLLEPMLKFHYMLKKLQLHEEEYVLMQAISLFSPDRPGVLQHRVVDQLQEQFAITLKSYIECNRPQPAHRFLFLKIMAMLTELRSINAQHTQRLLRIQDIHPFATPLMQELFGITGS

FXR = target: T3, FXR (Homo sapiens, UniProt Q96RI1); assay: cell-based FXR transcription assay, FXR responsive promoter linked to luciferase reporter; details: cell-based FXR reporter assay; for RE^a: footnote a not given
T3 construct: using a full length FXR on a natural response element; expressed in transfected cells
T3 sequence (Q96RI1 1-486): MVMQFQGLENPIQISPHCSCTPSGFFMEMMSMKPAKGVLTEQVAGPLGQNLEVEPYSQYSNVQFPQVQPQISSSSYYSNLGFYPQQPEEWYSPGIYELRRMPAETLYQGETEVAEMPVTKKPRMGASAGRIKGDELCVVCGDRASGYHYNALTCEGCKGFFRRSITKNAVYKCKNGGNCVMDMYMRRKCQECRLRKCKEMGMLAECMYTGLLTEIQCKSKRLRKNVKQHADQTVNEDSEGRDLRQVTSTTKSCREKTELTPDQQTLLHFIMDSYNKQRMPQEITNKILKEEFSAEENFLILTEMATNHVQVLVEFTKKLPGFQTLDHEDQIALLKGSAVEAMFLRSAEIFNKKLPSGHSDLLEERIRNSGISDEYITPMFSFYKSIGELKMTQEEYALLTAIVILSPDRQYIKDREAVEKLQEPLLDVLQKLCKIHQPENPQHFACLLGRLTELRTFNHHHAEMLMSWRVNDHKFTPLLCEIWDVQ
Outline: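 Cells co-transfected with full-length FXR and a luciferase reporter driven by a natural response element on a minimal promoter. Compound exposure ≈10 μM for 18 h before washing and luciferase read-out, in 384-well format, with CDCA as reference activator. EC50 derived from transcriptional activity.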

[4] = HT29-BABE or HT29-FXR-AF2 cell lines
[5] = HT29-VP16-FXR cells (constitutive expression)

SMILES | induction of IBABP mRNA, in words [3, 4] | induction of IBABP mRNA, in words ([3]; HT29-FXRFL cells) | concentration for maximal induction of IBABP mRNA ([3]; HT29-FXRFL cells) [µM] | induction of IBABP mRNA, in words [3, 5] | RE^a (FXR) | further results
CC(C)c1onc(-c2c(Cl)cccc2Cl)c1COc1ccc(/C=C/c2cccc(C(=O)O)c2)c(Cl)c1 [GW4064, reference compound] | No induction of IBABP mRNA levels | robust concentration dependent induction of IBABP mRNA | 1 | super-induced | – | concentration at which maximal activity is achieved (mouse FXR and human RXR; ECRE and ER-8 reporters): 1 µM; activity on the minimal TK promoter (mouse FXR and human RXR; no FXRE copies): less than 2 fold; activation of ECRE FXRE reporter (mouse FXR and human RXR; six copies of ECRE, TK minimal promoter): 100 fold; activation of ER-8 FXRE reporter (mouse FXR and human RXR; two copies of ER-8, TK minimal promoter): 4 fold; concentration of maximum efficacy [1]: 1 µM; induction of FXR target genes, in words [2]: slightly better induction of the FXR target genes PLTP and SHP
C[C@H](CCC(=O)O)[C@H]1CC[C@H]2[C@@H]3[C@H](O)C[C@@H]4C[C@H](O)CC[C@]4(C)[C@H]3CC[C@]12C [CDCA, chenodeoxycholic acid, reference compound] | No induction of IBABP mRNA levels | robust concentration dependent induction of IBABP mRNA | 100 | super-induced | – | –
COC(=O)/C=C/c1cccc(N(Cc2ccc3c(c2OC)OC(C)(C)C2C3C2(Cl)Cl)C(=O)C2CCCCC2)c1 (centres unmarked) [Compound 149] | – | – | – | – | 0.50 | SXR activation, in words (SXR): potently activated SXR
COC(=O)C=Cc1cccc(N(Cc2ccc(C=Cc3scnc3C)cc2)C(=O)C2CCCCC2)c1 [Compound 210] | – | – | – | – | 0.53 | –
CCOc1cccc(-c2ccc(CN(C(=O)C3CCCCC3)c3cccc(/C=C/C(=O)OC)c3)cc2)c1 [Compound 226] | – | – | – | – | 1.37 | –
COC(=O)C=Cc1cccc(N(Cc2ccc(C=Cc3cccc(C(F)(F)F)c3)cc2)C(=O)C2CCCCC2)c1 [Compound 186] | – | – | – | – | 0.35 | EC50 (FXR; determined with Prism 3.0): 937 nM
